Data on one compound can be found in patent US3982999A, “Complexing cresolase with copper chelating agents” (priority 1974, dated 1976).

Data set [1] relates to Tyrosinase (polyphenol oxidase) isolated from mushrooms. As to conditions: control 0.0433. On the procedure:
^a Tyrosinase (polyphenol oxidase) isolated from mushrooms and purchased from Sigma, St. Louis, Mo. The reaction was carried out in 2 quartz curvette containing 1 ml of phosphate buffer (0.5 M, pH 6.5) 1 ml of substrate (1 mM L-tyrosine in H2 O), 0.5 ml of solvent or drug, 0.5 ml H2 O (for blank), 0.4 ml H2 O and 0.1 ml of enzyme (0.5 mg/ml) for the reaction tube. The reaction was started by the addition of enzyme and the change of optical density (Δ O.D.) was determined at 1 min intervals.

The subject of another data set is L1210 mouse leukemia. In words: Antileukemia activity against L1210 mouse leukemia in BDF1 mice (survival). Type of data set: in vivo. Conditions: for T/C (test group mean day of death / control group mean day of death): Day 1 through Day 9, uninjected control group. On the procedure: (§1) Male BDF1 mice, initial weight ca 23g, were inoculated i.p. on Day 0 with 10^5 L1210 cells per mouse. Treatment was initiated on Day 1 and continued through Day 9. Animals were weighed on days 1 and 5 to assess toxicity. Agents were prepared fresh daily as follows: 8-OH-quinoline (Eastman Chemical Co.) was dissolved in a small volume of absolute ethanol and diluted to the appropriate concentration with 0.1M sodium phosphate buffer, pH 6.5 (final ethanol concentration: 3%). Dilutions were made in buffer containing 3% ethanol. Tyrosinase^2 (Sigma Chemical Co., lot 121C-9530) was dissolved in buffer containing 3% ethanol. (Previous studies had shown that 3% ethanol had no effect on the activity of the enzyme) For the combination, 8-OH-quinoline was again dissolved in a small volume of ethanol, but diluted with 0.1M sodium phosphate buffer; pH6.5, containing tyrosinase in the appropriate concentration. Dilutions were made in buffer containing both 3% ethanol and tyrosinase so that both ethanol and tyrosinase concentrations remained constant as the 8-OH-quinoline concentration decreased. The combination was "incubated" at room temperature for 30 minutes before administration. The radio of enzyme to substrate administered in the combination was varied from 1:1 to 1:.125.
Actual doses administered and results comprise Table IV. Results are expressed as the ratio (T/C) of the test group mean day of death to control group mean day of death.

Data set [2] has as its system L1210 leukemia cells. The data set is described as follows: 3-day L1210 cell growth inhibition assay in culture (complete or regular medium). It counts as cell-based, mouse. Conditions: for L1210 Cell Growth (cell concentration day 3 - day 0): control growth 147.9. The text has this:
(§2) In this experiment, we further investigated the effects of tyrosinase on L1210 cell growth with two media; 1) complete or regular medium and; 2) tyrosine-phenylalanine depleted medium.
(§3) ^a 3-day cell growth inhibition assay.
^b Cell Growth = (cell concentration day 3 - cell concentration day 0

Data set [3] is described as follows: Preliminary toxicity study, single intraperitoneal dose. As to conditions: mouse, in vivo, ip; single intraperitoneal (i.p.) dose, suspended in Klucel (0.3% hydroxy-propylcellulose), male BDF1 mice.
Data set [4] relates to L1210 leukemia cells. In words: 3-day L1210 cell growth inhibition assay in tyrosine-phenylalanine depleted medium. It counts as cell-based, mouse. Conditions: Tyrosine and Phenylalamine Depleted Medium, 0.15 g/ml 8-Hydroxyquinoline.
Text: as §2, §3

Data set [5] in a line: Day 1-5 weight change of L1210-bearing mice to assess toxicity. Type of data set: in vivo. On the procedure: as §1
Setting [6] is: 8-Hydroxyquinoline 0.15 μg/ml, Tyrosinase 0.

“And” between values parts separate entries of the source, which are not always exact repeats. Identical values can stand only once. Like-named read-outs stand apart in the source and are kept apart here.

For `Oc1cccc2cccnc12` [8-Hydroxyquinoline, 8-hydroxyquinoline], the results for the “Reaction Rate” value in data set [1] (8-Hydroxyquinoline 10 μg/ml), in data set [1] (8-Hydroxyquinoline 50 μg/ml) and in data set [1] (8-Hydroxyquinoline 200 μg/ml) were 0.0353 Δ OD/Min, 0.0160 Δ OD/Min and 0.0007 Δ OD/Min, respectively. The “T/C (test group mean day of death / control group mean day of death)” value in the data set with L1210 mouse leukemia (2.5 mg/kg/day) is recorded as “.95”; with L1210 mouse leukemia (5 mg/kg/day) it was “.92”; with L1210 mouse leukemia (10 mg/kg/day) it was “.97”; with L1210 mouse leukemia (20 mg/kg/day), “.97”. In the data set on L1210 mouse leukemia (mouse, in vivo, listed as 8-OH-quinoline), the “Mean day of Death (I.S.D.)” value was 9.5 ± 0.8 days and 9.5 ± 0.4 days and 9.0 ± 0.6 days and 9.3 ± 0.8 days. For the same compound, the “L1210 Cell Growth (cell concentration day 3 - day 0)” value is given as 126.8 × 10^3 cells/ml in the data set with L1210 leukemia cells [2] (8-Hydroxyquinoline 0.1 μg/ml, Tyrosinase 0); 56.4 × 10^3 cells/ml in the data set with L1210 leukemia cells [2] (setting [6]); 7.4 × 10^3 cells/ml in the data set on L1210 leukemia cells [2] (8-Hydroxyquinoline 0.2 μg/ml, Tyrosinase 0). In the data set with L1210 leukemia cells [2] (setting [6]), the “L1210 Cell Growth % Inhibition (%I)” value worked out at 61.9%. The “Inhibition (%)” value in the data set on L1210 leukemia cells [2] (Completed Medium, 0.15 g/ml 8-Hydroxyquinoline, two experiments) is 12.1% and 21.8%; with L1210 leukemia cells [4] (two experiments) it was 45.6% and 52.2%. In addition, the “Cell × 10^3 /ml” value with L1210 leukemia cells [2] (Completed Medium, 0.15 g/ml 8-Hydroxyquinoline, two experiments (controls 391.9, 358.5)) was 344.5 × 10^3 /ml and 280.2 × 10^3 /ml; in the data set with L1210 leukemia cells [4] (two experiments (controls 102.5, 62.1)), 55.8 × 10^3 /ml and 29.7 × 10^3 /ml. The inhibition at 0.1 µg/mL with L1210 leukemia cells [2] (Mus musculus, L1210, 8-Hydroxyquinoline 0.1 μg/ml, Tyrosinase 0, read-out: L1210 Cell Growth % Inhibition (%I)) is 14.3%. Besides, the inhibition at 0.15 µg/mL in the data set on L1210 leukemia cells [2] (Mus musculus, L1210, 8-Hydroxyquinoline 0.15 μg/ml, Tyrosinase 0, read-out: L1210 Cell Growth % Inhibition (%I)) is > 60%. Also, the inhibition at 0.2 µg/mL in the data set with L1210 leukemia cells [2] (Mus musculus, L1210, 8-Hydroxyquinoline 0.2 μg/ml, Tyrosinase 0, read-out: L1210 Cell Growth % Inhibition (%I)) came out at 95%. The LD50 in data set [3] was ~75 mg/kg. Further, the “Day 1-5 Weight Change” value was -0.3 gm/mouse in data set [5] (2.5 mg/kg/day), “+1.4 gm/mouse” in data set [5] (5 mg/kg/day), “+1.0 gm/mouse” in data set [5] (10 mg/kg/day) and “+1.0 gm/mouse” in data set [5] (20 mg/kg/day).
